The nature of series [1]: Cytotoxicity in human MRC5 cells assessed as reduction in cell viability incubated for 24 hrs by resazurin-based cytotoxicity assay.
A further series has as its system Plasmodium falciparum. The series can be described thus: Antiplasmodial activity against Plasmodium falciparum K1 infected in human erythrocytes assessed as reduction in parasite multiplication incubated for 72 hrs by Malstat method. The class given is functional, organism-based. The conditions noted are these: K1, 72 h.
Series [2] has as its system Mycobacterium tuberculosis. The series is described as follows: Antitubercular activity against Mycobacterium tuberculosis H37Rv reduction in bacterial multiplication incubated for 7 days by luminometric assay. The class given is functional. To be noted: 168 h.
Series [3] in a line: Oral bioavailability in healthy human at 500 mg. The class given is ADME, organism-based. The conditions noted are these: in vivo.

Molecules are shown by their SMILES. Values after ≈ are worked out from the molar mass of the structure shown.

Broadly, the CC50 is the concentration that lowers cell viability or growth by half. One may read the IC50 as the concentration at which inhibition is half-maximal. As usually defined, the MIC is the lowest concentration that inhibits growth of the organism. Low readings indicate greater potency, high ones weaker potency. As to `CCCCCCCCC(=O)ON(C)C(=O)CCCP(=O)(OCOC(=O)C(C)(C)C)OCOC(=O)C(C)(C)C`, the CC50 at 24 h in series [1] is more than 64 µM. Besides, the IC50 in the series on Plasmodium falciparum was 1.41 µM. Moreover, in series [2], the MIC was 50 µM (≈ 28.3 µg/mL).
Regarding `CN(OC(=O)NCc1ccccc1)C(=O)CCCP(=O)(OCOC(=O)C(C)(C)C)OCOC(=O)C(C)(C)C`, the CC50 at 24 h in series [1] came out at 27.9 µM. In addition, the IC50 with Plasmodium falciparum was 0.64 µM. For the same molecule, in series [2], the MIC is more than 50 µM.
The corresponding values for `CCCCCCCCC(=O)Oc1ccc(CON(C)C(=O)CCCP(=O)(OCOC(=O)C(C)(C)C)OCOC(=O)C(C)(C)C)cc1` are more than 64 µM, 19 µM and 50 µM (≈ 33.6 µg/mL).
As usually defined, the bioavailability is the share of a dose that reaches the circulation, judged against a reference dose that is usually intravenous. Low values mean little systemic uptake, high ones much systemic uptake. For the molecule `O=CN(O)CCCP(=O)([O-])O.[Na+]` [FOSMIDOMYCIN SODIUM], in series [1], the CC50 at 24 h was more than 64 µM. The MIC in series [2] was more than 64 µM. For the same molecule, in series [3], the bioavailability was in the range of 20 to 40%.
With `CN(OC(=O)Nc1ccccc1)C(=O)CCCP(=O)(OCOC(=O)C(C)(C)C)OCOC(=O)C(C)(C)C`, the CC50 at 24 h in series [1] was determined as 33.4 µM. In addition, the IC50 in the series on Plasmodium falciparum is 3.34 µM.
For the molecule `CN(OCc1ccc([N+](=O)[O-])s1)C(=O)CCCP(=O)(OCOC(=O)C(C)(C)C)OCOC(=O)C(C)(C)C`, the CC50 at 24 h in series [1] turned out to be 20.5 µM. In the series with Plasmodium falciparum, the IC50 was determined as 4.69 µM. Besides, in series [2], the MIC is 12.5 µM (≈ 7.08 µg/mL).
The matching figures for `CCNC(=O)ON(C)C(=O)CCCP(=O)(OCOC(=O)C(C)(C)C)OCOC(=O)C(C)(C)C`: 25.9 µM, 2.52 µM and more than 50 µM.
With `CN(O)C(=O)CCCP(=O)(OCOC(=O)C(C)(C)C)OCOC(=O)C(C)(C)C`, in series [1], the CC50 at 24 h was more than 64 µM. The molecule further had an MIC in series [2] of more than 50 µM.
Regarding `CN(OCc1ccc([N+](=O)[O-])o1)C(=O)CCCP(=O)(OCOC(=O)C(C)(C)C)OCOC(=O)C(C)(C)C`, in series [1], the CC50 at 24 h worked out at 26.3 µM. Also, in the series on Plasmodium falciparum, the IC50 turned out to be 4.42 µM. In series [2], the MIC turned out to be 12.5 µM (≈ 6.88 µg/mL).
As for `CC(=O)ON(C)C(=O)CCCP(=O)(OCOC(=O)C(C)(C)C)OCOC(=O)C(C)(C)C`, the CC50 at 24 h in series [1] was more than 64 µM. Also, the IC50 with Plasmodium falciparum was 1.34 µM.
Consider `CN(OC(=O)c1ccccc1)C(=O)CCCP(=O)(OCOC(=O)C(C)(C)C)OCOC(=O)C(C)(C)C`, for which the CC50 at 24 h in series [1] was more than 64 µM. Further, the IC50 with Plasmodium falciparum came out at 1.08 µM. This molecule also registered an MIC in series [2] of 50 µM (≈ 26.5 µg/mL).
`CN(OCc1ccc([N+](=O)[O-])cc1)C(=O)CCCP(=O)(OCOC(=O)C(C)(C)C)OCOC(=O)C(C)(C)C`: the CC50 at 24 h in series [1] is 26.5 µM. Besides, in the series on Plasmodium falciparum, the IC50 amounted to 8.79 µM. The MIC in series [2] was more than 50 µM.
`CN(OC(=O)OCc1ccccc1)C(=O)CCCP(=O)(OCOC(=O)C(C)(C)C)OCOC(=O)C(C)(C)C`: the CC50 at 24 h in series [1] was more than 42 µM. The IC50 in the series with Plasmodium falciparum was more than 36 µM. This molecule also yielded a minimal inhibitory concentration (MIC) in series [2] of more than 50 µM.
